Entries after “also recorded” stand apart in the source; their conditions may differ.
Key:
[1] = target: AURORA B kinase (Homo sapiens, UniProt Q96GD4); settings: competitive ATP inhibition; Mortlock et al., 2007; cited from earlier work
[2] = tested on: HORMAD1 positive organoid KCL625; experiment: HORMAD1 positive organoid KCL625 viability by cell titer glo; format: cell-based; settings: indicated doses, 10 days
Description: Organoids were treated with the indicated doses of drug for 10 days and cell viability assessed by cell titer glo. Data is presented as mean and standard deviation of triplicate wells;

[3] = tested on: RPE1 cells expressing a doxycycline-inducible HORMAD1 construct; experiment: Incucyte time-lapse confluence/proliferation in RPE1 cells with doxycycline-inducible HORMAD1; format: cell-based; settings: for cellular growth / fitness of HORMAD1 expressing RPE1 cells versus vehicle-induced cells under drug: incucyte confluence, 200 nM BOS172722 or 20 nM AZD1152-HQPA 10 days, 3 μM BAY-1816032 14 days
Description: Cell confluence was analysed every 6 hours for 10 days, using incucyte software. Data are from 3 biological replicates and analysed using a two-way ANOVA. […] RPE1 cells expressing a doxycycline-inducible HORMAD1 expression construct were exposed to doxycycline or vehicle (H2O) and were exposed to 20 nM of the Aurora B inhibitor, AZD1152-HQPA. Cell confluence was analysed every 6 hours for 10 days, using incucyte software. Data are from 3 biological replicates and analysed using a two-way ANOVA. […] 7-10 days post drugging, cells were fixed, stained with SRB, and colonies were counted using Cell Profiler. […] 10 days post drugging, cells were fixed, stained with SRB, and colonies were counted using Cell Profiler. […] RPE1 cells expressing a doxycycline-inducible HORMAD1 expression construct were exposed to doxycycline or vehicle (H2O) and to increasing doses of the Aurora B inhibitor, AZD1152-HQPA. 7-10 days post drugging, cells were fixed, stained with SRB, and colonies were counted using Cell Profiler. […] SUM159 cells expressing a doxycycline-inducible HORMAD1 expression construct were exposed to doxycycline or vehicle (H2O) and to increasing doses of the Aurora B inhibitor, AZD1152-HQPA. 10 days post drugging, cells were fixed, stained with SRB, and colonies were counted using Cell Profiler.
RPE1 cells were reverse transfected with BUB1 or control siRNA particles for 3 days. Cell lysates were collected, and analysed by western blotting using anti-BUB1 and anti-β-ACTIN antibodies. […] RPE1 cells expressing a doxycycline-inducible HORMAD1 expression construct were exposed to doxycycline or vehicle, and were reverse transfected with BUB1 or control siRNA particles. 5 days post transfection, cellular viability was estimated using cell titer glo reagent and surviving fractions were calculated relative to DMSO treated cells. […] Statistical significance estimated using a one-way ANOVA with Sidak's correction. C. […] Cell lysates were collected, and analysed by SDS-PAGE and western blotting using anti-HORMAD1, anti-H3 and anti-BUB1 antibodies. […] 7-10 days post doxycycline induction, cells were fixed, stained with SRB, and cellular viability was estimated using SRB absorbance readings. […] Cells were fixed, stained with SRB, and cellular viability was estimated using SRB absorbance readings. […] Cells were imaged every 4 hours, and confluence was continually measured using incucyte software. […] Patient-derived organoids models were grown in culture and cell lysates collected and analysed using SDS-PAGE and western blotting using anti-HORMAD1 and anti-β-ACTIN antibodies. […] Cellular viability was estimated using cell titer glo reagent and surviving fractions were calculated relative to DMSO treated cells. […]

[4] = tested on: RPE1 cells expressing a doxycycline-inducible HORMAD1 construct; experiment: Cell viability by cell titre glo in RPE1 cells with doxycycline-inducible HORMAD1; format: cell-based
Description: RPE1 cells expressing a doxycycline-inducible HORMAD1 construct were treated with doxycycline or vehicle. […] Six days post HORMAD1 induction and 5 days post drug, cell viability was estimated using cell titre glo reagent. Surviving fractions were calculated (normalised to vehicle treated cells).
RPE1 and SUM159 cells expressing a doxycycline-inducible HORMAD1 construct were treated with doxycycline or vehicle. […] Surviving fractions were calculated (normalised to vehicle treated cells). (FIGS. 7a, b and 14c and d). Data from 3 replicas was analysed using 2-way ANOVA. 5 days post drugging, cell viability was estimated using cell titre glo reagent. Surviving fractions were calculated (normalised to vehicle treated cells). Data from 4 replicas was analysed using 2-way ANOVA.
RPE1 cells expressing a doxycycline-inducible HORMAD1 construct were treated with doxycycline or vehicle. […] 5 days post drugging, cell viability was estimated using cell titre glo reagent. Surviving fractions were calculated (normalised to vehicle treated cells).
RPE1 cells expressing a doxycycline-inducible HORMAD1 construct were treated with doxycycline or vehicle in order to induce HORMAD1 expression. […] Using cell titre glo as a measure of cell viability, surviving fractions were calculated (normalised to eribulin alone).
RPE1 cells expressing a doxycycline-inducible HORMAD1 construct were treated with doxycycline or vehicle. […] Using cell titre glo as a measure of cell viability, surviving fractions were calculated (normalised to olaparib alone).

[5] = tested on: organoids from spontaneous tumours of WB1P mouse with or without human HORMAD1; experiment: Organoids from genetically engineered mouse model tumours, viability by cell titre glo; format: cell-based; settings: increasing doses, 14 days post drugging
Description: In a further experiment, HORMAD1 was expressed within a genetically engineered mouse model of triple-negative breast cancer (original model published in Annunziato et al., 2019). Human HORMAD1 was expressed in the WB1P mouse (Annunziato et al., 2019) using a transgene and derived organoids from spontaneous tumours.
Genetically engineered mouse models were generated by conditionally deleting BRCA1 and P53 in breast epithelia (Liu et al., 2007). Human HORMAD1 fused to luciferase was conditionally expressed under a breast-specific promoter. Spontaneous tumours from these mice were isolated and grown as organoids, treated with increasing doses of BUB1 inhibitor, BAY-1816032. 14 days post drugging, cell viability was estimated using cell titre glo reagent. Surviving fractions were calculated (normalised to vehicle treated cells). Data from 3 replicas, analysed using 2-way ANOVA.

Sequence of AURORA B kinase (Q96GD4 whole entry): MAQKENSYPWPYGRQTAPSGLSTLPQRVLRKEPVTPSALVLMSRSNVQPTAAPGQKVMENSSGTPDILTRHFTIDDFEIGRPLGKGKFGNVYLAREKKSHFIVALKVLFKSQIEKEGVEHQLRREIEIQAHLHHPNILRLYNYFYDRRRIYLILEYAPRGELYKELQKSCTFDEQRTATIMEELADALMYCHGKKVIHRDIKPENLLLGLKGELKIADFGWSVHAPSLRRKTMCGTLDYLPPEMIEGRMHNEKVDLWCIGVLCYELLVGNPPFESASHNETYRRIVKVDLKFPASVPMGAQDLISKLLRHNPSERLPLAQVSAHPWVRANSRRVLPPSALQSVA

| SMILES | inhibition of AURORA B kinase activity [1] | sensitivity (surviving fraction versus DMSO) of organoid KCL625 [2] | cellular growth / fitness of HORMAD1 expressing RPE1 cells versus vehicle-induced cells under drug [3] | confluency reached, HORMAD1 expressing RPE1 cells ([3]; 3 μM, 240 hours, incucyte) | confluency reached, RPE1 cells without HORMAD1 expression ([3]; 3 μM, 240 hours, incucyte) | growth inhibition (surviving fraction) of HORMAD1 expressing versus HORMAD1-negative RPE1 cells, with eribulin ([4]; increasing doses alongside 0.4 nm eribulin, normalised to eribulin alone) | growth inhibition (surviving fraction) of HORMAD1 expressing versus HORMAD1-negative RPE1 cells, with olaparib ([4]; increasing doses alongside 0.47 μm olaparib, normalised to olaparib alone) | growth inhibition (surviving fraction) of HORMAD1 expressing versus HORMAD1-negative RPE1 cells ([4]; increasing doses, 5 days post drug, cell titre glo, normalised to vehicle) | growth inhibition of HORMAD1-expressing versus HORMAD1-negative mouse tumour organoids [5] |
| --- | --- | --- | --- | --- | --- | --- | --- | --- | --- |
| CCN(CCO)CCCOc1ccc2c(Nc3cc(CC(=O)Nc4cccc(F)c4)[nH]n3)ncnc2c1 [AZD1152-HQPA] | potently inhibits | highly sensitive; also recorded: high sensitivity | marked decrease in cellular growth; also recorded: decreased cellular fitness | – | – | – | – | – | – |
| COc1cnccc1Nc1nc(-c2nn(Cc3c(F)cc(OCCO)cc3F)c3ccccc23)ncc1OC [BAY-1816032] | – | – | decreased cellular fitness | around 15% | ~85% | more effectively inhibited | more effectively inhibited | more effectively inhibited | more effectively inhibited |

Source: patent US20240050434A1, “HORMAD1 THERAPEUTICS” (Royal Cancer Hospital, priority 2020, published 2024)
